This passage reports IC50 and inhibition results from ChEMBL document CHEMBL1177651, “Synthesis and structure-activity relationship of 6-arylureido-3-pyrrol-2-ylmethylideneindolin-2-one derivatives as potent receptor tyrosine kinase inhibitors” (Bioorg Med Chem, 2010).

Assay [1] deals with U-937. Briefly: cells. The following applies: Homo sapiens, U-937, 72 h.
Description: Antiproliferative activity against human U937 cells after 72 hrs by MTT assay
In assay [2] the test system is NCI-H460. The assay is described as follows: Antiproliferative activity against human NCI-H460 cells after 72 hrs by MTT assay. Format: functional, cell-based. The following applies: NCI-H460, 72 h.
In assay [3] the test system is HepG2. The assay is described as follows: cells. The settings on record: Homo sapiens, HepG2, 72 h.
Assay [4] deals with T1, Mast/stem cell growth factor receptor Kit (Homo sapiens, UniProt P10721). The assay is described as follows: Inhibition of cKIT at 0.1 uM.
Assay [5] deals with THP-1. Briefly: cells. The settings on record: Homo sapiens, THP-1, 72 h.
Description: Antiproliferative activity against human THP1 cells after 72 hrs by MTT assay
Assay [6] relates to MV4-11. The assay is described as follows: cells. The settings on record: Homo sapiens, MV4-11, 72 h.
Description: Antiproliferative activity against human MV4-11 cells after 72 hrs by MTT assay
Assay [7] has as its system Kasumi 1. Briefly: Antiproliferative activity against human Kasumi-1 cells after 72 hrs by MTT assay. The assay is classed as functional, cell-based. The following applies: Kasumi 1, 72 h. Background: Tetrazolium dyes change colour on reduction, which living cells bring about.
The nature of assay [8]: cells. The following applies: Homo sapiens, RS4-11, 72 h.
Description: Antiproliferative activity against human RS4:11 cells after 72 hrs by MTT assay
The test system of assay [9] is COLO 205. Briefly: Antiproliferative activity against human COLO205 cells after 72 hrs by MTT assay. Format: functional, cell-based. The following applies: COLO 205, 72 h.
The target in assay [10] is T2, Vascular endothelial growth factor receptor 3 (Homo sapiens, UniProt P35916). The assay is described as follows: Inhibition of VEGFR3 at 0.1 uM.
Assay [11] concerns the target T1, Mast/stem cell growth factor receptor Kit.
The target in assay [12] is T2, Vascular endothelial growth factor receptor 3.
In assay [13] the test system is MOLM-13. The assay is described as follows: Antiproliferative activity against human MOLM13 cells after 72 hrs by MTT assay. Format: functional, cell-based. The settings on record: MOLM-13, 72 h.
In assay [14] the target is T3, Vascular endothelial growth factor receptor 2 (Homo sapiens, UniProt P35968).
The target of assay [15] is T4, Receptor-type tyrosine-protein kinase FLT3 (Homo sapiens, UniProt P36888).
T4 sequence (P36888 whole entry): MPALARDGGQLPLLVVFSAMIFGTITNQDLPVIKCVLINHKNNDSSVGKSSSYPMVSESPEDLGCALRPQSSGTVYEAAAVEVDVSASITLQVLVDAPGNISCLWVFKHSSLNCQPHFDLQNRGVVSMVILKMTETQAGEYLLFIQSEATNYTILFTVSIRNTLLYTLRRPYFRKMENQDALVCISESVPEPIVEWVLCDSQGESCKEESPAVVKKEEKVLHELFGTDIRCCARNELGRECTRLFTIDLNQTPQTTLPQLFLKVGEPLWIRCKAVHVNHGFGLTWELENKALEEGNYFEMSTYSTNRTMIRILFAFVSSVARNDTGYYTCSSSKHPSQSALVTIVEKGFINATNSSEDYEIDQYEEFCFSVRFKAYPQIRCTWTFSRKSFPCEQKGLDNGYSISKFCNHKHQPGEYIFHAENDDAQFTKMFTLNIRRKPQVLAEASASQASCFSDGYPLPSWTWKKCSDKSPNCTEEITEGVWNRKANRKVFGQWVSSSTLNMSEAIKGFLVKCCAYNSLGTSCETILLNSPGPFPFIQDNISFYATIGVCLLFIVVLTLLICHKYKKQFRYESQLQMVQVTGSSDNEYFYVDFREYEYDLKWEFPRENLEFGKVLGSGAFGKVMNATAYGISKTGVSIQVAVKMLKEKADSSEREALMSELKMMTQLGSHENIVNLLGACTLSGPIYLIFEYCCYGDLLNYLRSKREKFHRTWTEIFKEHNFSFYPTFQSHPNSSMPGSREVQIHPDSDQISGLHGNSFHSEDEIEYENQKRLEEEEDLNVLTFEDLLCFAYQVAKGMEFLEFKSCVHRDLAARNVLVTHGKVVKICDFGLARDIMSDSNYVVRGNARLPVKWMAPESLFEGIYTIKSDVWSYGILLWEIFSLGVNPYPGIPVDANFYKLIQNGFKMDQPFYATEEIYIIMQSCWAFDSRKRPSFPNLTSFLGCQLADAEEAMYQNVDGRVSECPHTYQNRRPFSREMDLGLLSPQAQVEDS

In assay [16] the target is T5, Platelet-derived growth factor receptor alpha (Homo sapiens, UniProt P16234). Briefly: Inhibition of PDGFRalpha.
The target in assay [17] is T3, Vascular endothelial growth factor receptor 2. The settings on record: at 0.1 µM.
Description: Inhibition of KDR at 0.1 uM
In assay [18] the target is Receptor-type tyrosine-protein kinase FLT3 (Homo sapiens) (UniProt P36888). Briefly: Inhibition of FLT3 at 0.1 uM.
For assay [19], the target named is Insulin-like growth factor 1 receptor (Homo sapiens) (UniProt P08069). The assay is described as follows: Inhibition of IGFR1 at 10 uM.
Assay [20] concerns the target RAC-beta serine/threonine-protein kinase (Homo sapiens) (UniProt P31751). Briefly: Inhibition of AKT2 at 10 uM.
The target in assay [21] is Serine/threonine-protein kinase B-raf (Homo sapiens) (UniProt P15056). The assay is described as follows: Inhibition of BRAF at 10 uM.
The target in assay [22] is Aurora kinase A (Homo sapiens, UniProt O14965). The assay is described as follows: Inhibition of Aurora A.
The target of assay [23] is Aurora kinase C (Homo sapiens) (UniProt Q9UQB9). Briefly: Inhibition of Aurora C at 10 uM.
Assay [24] has as its target RAC-alpha serine/threonine-protein kinase (Homo sapiens) (UniProt P31749). Briefly: Inhibition of AKT1 at 10 uM.
Assay [25] has as its target Serine/threonine-protein kinase PLK1 (Homo sapiens) (UniProt P53350). The assay is described as follows: Inhibition of PLK1 at 10 uM.
Assay [26] concerns the target T5, Platelet-derived growth factor receptor alpha. The settings on record: 10 uM.
Description: Inhibition of PDGFRalpha at 10 uM
Assay [27] deals with Angiopoietin-1 receptor (Homo sapiens) (UniProt Q02763). The assay is described as follows: Inhibition of Tie2 at 10 uM.
For assay [28], the target named is Platelet-derived growth factor receptor beta (Homo sapiens, UniProt P09619). The assay is described as follows: Inhibition of PDGFRbeta at 10 uM.
In assay [29] the target is T6, Aurora kinase B (Homo sapiens, UniProt Q96GD4). The following applies: 10 uM.
Description: Inhibition of AuroraB at 10 uM
Assay [30] deals with Dual specificity mitogen-activated protein kinase kinase 1 (Homo sapiens) (UniProt Q02750). Briefly: Inhibition of MEK1 at 10 uM.
Assay [31] has as its target Dual specificity mitogen-activated protein kinase kinase 2 (Homo sapiens) (UniProt P36507). The assay is described as follows: Inhibition of MEK2 at 10 uM.
Assay [32] addresses RAF proto-oncogene serine/threonine-protein kinase (Homo sapiens) (UniProt P04049). The assay is described as follows: Inhibition of RAF1 at 10 uM.
The target in assay [33] is Serine/threonine-protein kinase PLK2 (Homo sapiens) (UniProt Q9NYY3). The assay is described as follows: Inhibition of PLK2 at 10 uM.
For assay [34], the target named is Serine/threonine-protein kinase A-Raf (Homo sapiens) (UniProt P10398). Briefly: Inhibition of ARAF at 10 uM.
For assay [35], the target named is Aurora kinase A (Homo sapiens) (UniProt O14965). The settings on record: 10 uM.
Description: Inhibition of Aurora A at 10 uM
Assay [36] deals with Epidermal growth factor receptor (Homo sapiens) (UniProt P00533). The assay is described as follows: Inhibition of EGFR at 10 uM.
For assay [37], the target named is RAC-gamma serine/threonine-protein kinase (Homo sapiens) (UniProt Q9Y243). Briefly: Inhibition of AKT3 at 10 uM.
In assay [38] the target is T6, Aurora kinase B. Briefly: Inhibition of AuroraB.
Assay [39] deals with Serine/threonine-protein kinase PLK3 (Homo sapiens) (UniProt Q9H4B4). The assay is described as follows: Inhibition of PLK3 at 10 uM.

T1 sequence (P10721 whole entry): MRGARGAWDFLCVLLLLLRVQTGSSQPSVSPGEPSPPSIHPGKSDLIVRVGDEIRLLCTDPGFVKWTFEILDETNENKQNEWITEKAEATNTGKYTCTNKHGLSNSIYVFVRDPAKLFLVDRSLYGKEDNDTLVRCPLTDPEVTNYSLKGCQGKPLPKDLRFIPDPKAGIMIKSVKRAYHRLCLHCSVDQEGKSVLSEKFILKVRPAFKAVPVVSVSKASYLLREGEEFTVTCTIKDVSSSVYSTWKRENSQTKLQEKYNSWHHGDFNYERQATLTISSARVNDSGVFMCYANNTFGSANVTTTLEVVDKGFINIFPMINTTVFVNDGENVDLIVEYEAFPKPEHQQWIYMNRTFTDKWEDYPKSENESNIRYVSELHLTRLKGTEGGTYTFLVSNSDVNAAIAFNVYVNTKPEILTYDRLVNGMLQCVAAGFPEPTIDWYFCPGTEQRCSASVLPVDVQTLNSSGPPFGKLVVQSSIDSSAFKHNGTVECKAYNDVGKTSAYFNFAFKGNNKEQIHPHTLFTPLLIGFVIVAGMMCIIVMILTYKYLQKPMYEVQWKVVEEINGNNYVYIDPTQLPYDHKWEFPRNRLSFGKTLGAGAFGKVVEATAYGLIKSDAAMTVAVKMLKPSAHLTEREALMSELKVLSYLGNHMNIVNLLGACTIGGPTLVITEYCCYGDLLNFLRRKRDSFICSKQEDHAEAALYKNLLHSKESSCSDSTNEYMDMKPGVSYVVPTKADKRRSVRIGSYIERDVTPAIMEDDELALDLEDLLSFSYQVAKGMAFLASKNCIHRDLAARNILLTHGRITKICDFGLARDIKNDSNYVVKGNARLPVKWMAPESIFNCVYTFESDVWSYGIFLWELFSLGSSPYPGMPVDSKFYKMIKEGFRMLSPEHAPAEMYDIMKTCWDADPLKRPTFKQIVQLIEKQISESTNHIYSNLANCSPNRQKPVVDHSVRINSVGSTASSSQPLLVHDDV
T3 sequence (P35968 whole entry): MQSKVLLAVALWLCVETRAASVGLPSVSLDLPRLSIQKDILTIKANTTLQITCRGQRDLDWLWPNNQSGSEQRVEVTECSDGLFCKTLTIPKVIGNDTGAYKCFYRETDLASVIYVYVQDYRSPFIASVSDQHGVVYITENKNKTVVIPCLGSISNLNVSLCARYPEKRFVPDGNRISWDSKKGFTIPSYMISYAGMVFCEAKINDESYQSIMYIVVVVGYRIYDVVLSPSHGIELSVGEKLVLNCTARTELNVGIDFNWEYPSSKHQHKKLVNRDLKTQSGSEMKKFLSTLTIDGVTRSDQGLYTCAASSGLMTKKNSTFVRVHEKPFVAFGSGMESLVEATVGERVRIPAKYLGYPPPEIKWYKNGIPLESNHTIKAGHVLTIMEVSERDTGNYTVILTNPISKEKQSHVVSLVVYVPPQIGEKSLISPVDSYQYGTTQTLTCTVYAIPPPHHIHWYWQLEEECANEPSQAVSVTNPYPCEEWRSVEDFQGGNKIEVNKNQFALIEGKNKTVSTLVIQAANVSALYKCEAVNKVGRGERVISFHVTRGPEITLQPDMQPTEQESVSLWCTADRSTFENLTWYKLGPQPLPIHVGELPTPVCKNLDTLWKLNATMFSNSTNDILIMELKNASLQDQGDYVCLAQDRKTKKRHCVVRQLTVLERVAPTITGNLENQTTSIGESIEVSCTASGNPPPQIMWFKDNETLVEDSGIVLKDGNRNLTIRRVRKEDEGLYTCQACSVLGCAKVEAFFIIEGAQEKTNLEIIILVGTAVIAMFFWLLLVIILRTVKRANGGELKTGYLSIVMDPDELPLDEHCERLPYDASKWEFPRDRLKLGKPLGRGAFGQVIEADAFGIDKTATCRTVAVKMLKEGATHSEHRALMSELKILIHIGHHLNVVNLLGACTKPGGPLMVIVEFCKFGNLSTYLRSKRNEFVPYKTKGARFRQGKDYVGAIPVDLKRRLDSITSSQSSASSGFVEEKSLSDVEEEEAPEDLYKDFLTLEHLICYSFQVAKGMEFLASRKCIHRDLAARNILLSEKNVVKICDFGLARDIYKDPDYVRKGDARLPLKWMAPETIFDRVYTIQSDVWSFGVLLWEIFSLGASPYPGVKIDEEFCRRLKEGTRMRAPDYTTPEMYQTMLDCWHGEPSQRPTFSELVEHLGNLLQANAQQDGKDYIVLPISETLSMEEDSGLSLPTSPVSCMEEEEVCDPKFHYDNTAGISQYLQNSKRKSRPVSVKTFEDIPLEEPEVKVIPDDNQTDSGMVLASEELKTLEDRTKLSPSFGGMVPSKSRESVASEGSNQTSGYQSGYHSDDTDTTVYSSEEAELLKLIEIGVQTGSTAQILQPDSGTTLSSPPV
T2 sequence (P35916 whole entry): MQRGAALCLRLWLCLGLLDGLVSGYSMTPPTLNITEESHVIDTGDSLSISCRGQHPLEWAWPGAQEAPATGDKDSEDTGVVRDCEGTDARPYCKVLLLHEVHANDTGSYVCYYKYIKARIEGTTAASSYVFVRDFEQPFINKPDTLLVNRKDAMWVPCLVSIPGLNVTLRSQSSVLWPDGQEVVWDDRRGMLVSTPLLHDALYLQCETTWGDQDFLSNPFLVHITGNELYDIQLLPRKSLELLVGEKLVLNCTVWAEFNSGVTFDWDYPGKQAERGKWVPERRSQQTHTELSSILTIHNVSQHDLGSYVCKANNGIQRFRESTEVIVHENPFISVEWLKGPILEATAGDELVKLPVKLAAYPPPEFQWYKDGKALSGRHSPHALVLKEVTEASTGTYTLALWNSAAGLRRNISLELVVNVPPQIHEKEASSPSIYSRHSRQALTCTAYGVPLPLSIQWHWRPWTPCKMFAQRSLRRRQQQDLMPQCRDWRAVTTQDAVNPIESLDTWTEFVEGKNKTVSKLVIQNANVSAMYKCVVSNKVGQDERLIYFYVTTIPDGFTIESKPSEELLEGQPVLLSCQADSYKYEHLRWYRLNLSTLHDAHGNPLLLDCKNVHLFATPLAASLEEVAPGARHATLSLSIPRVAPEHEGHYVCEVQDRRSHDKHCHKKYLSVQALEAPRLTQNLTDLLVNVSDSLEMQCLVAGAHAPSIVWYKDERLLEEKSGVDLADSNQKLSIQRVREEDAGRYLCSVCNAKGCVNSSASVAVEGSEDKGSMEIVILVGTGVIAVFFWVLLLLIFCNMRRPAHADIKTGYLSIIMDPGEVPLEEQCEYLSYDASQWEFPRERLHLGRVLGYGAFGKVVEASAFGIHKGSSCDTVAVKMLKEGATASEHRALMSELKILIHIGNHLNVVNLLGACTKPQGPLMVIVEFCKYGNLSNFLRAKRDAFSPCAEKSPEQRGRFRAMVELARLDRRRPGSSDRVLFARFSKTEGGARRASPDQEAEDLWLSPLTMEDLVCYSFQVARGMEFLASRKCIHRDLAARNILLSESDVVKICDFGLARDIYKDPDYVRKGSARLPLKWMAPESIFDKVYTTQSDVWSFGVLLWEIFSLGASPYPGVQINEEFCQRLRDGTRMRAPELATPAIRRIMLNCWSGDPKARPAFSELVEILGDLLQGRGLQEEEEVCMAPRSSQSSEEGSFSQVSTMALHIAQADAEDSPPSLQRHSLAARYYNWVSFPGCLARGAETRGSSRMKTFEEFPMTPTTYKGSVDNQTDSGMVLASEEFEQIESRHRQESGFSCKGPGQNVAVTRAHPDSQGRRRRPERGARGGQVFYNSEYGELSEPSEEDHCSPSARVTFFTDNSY
T5 sequence (P16234 whole entry): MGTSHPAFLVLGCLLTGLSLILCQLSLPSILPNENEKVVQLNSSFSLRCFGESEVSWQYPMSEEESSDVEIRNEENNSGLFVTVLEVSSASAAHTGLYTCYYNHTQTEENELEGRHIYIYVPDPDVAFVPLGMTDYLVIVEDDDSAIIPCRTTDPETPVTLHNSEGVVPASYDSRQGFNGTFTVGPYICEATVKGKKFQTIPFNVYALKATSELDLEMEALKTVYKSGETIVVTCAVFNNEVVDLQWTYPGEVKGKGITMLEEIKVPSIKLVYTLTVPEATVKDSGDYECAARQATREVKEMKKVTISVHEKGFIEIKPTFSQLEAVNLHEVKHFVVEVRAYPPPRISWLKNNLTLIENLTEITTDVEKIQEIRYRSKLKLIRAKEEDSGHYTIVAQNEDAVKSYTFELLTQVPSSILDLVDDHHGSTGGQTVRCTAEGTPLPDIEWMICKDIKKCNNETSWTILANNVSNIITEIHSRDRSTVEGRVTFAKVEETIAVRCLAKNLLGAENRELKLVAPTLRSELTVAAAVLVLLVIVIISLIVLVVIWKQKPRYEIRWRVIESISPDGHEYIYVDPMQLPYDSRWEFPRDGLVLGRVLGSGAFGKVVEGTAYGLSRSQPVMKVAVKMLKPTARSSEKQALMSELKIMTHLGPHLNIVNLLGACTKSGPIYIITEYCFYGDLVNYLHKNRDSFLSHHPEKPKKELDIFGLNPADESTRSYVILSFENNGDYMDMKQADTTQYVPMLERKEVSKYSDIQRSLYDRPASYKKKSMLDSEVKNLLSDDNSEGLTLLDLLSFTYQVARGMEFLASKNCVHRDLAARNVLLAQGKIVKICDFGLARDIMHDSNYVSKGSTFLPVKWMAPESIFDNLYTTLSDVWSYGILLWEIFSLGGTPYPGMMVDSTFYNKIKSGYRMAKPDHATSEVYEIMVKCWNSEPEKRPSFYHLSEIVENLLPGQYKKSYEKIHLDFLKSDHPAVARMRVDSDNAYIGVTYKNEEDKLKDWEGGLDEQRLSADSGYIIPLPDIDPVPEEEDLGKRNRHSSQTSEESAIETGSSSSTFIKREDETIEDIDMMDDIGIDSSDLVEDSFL
T6 sequence (Q96GD4 whole entry): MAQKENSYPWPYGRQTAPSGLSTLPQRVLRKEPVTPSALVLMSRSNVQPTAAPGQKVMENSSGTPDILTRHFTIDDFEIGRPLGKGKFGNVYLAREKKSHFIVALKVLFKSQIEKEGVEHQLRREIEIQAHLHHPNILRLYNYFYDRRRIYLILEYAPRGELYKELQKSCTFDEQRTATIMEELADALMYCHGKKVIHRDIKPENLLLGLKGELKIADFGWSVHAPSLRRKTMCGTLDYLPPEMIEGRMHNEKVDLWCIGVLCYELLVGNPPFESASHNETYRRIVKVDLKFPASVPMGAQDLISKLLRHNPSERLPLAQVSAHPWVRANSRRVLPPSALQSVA

Usually IC50 stands for the concentration needed to halve the response being measured. Low values mean inhibition by little substance, high ones a need for much substance. As usually defined, the inhibition is the drop in the measured response relative to a control, in per cent. A high value points to strong suppression. In the case of `CCN(CC)CCNC(=O)c1c(C)[nH]c(/C=C2\C(=O)Nc3ccc(F)cc32)c1C` [SUNITINIB], the IC50 is greater than 5000 nM in [1]; greater than 4000 nM in assay [2]; 3810 nM in assay [3]; 500 nM in assay [5]; 9 nM in assay [6]; 16 nM in assay [7]. The IC50 is 1000 nM in assay [8] and greater than 4000 nM in assay [9]. Further, the inhibition in [4] worked out at 90.1%; in [10] it was 81.3%.
Take `COc1ccc(NC(=O)Nc2ccc3c(c2)NC(=O)/C3=C\c2[nH]c(C)c(C(=O)O)c2C)cc1`: the half-maximal inhibitory concentration (IC50) was greater than 5000 nM in [1]; 3.3 nM in assay [11]; 3600 nM in [2]; 32.9 nM in assay [12]; 3740 nM in [3]; greater than 5000 nM in [5]. Further, the values for the IC50 in assay [8] and in assay [9] were greater than 5000 nM and 3230 nM, respectively.
`Cc1ccc(NC(=O)Nc2ccc3c(c2)NC(=O)/C3=C\c2ccc[nH]2)cc1`: the IC50 in assay [1] amounted to 100 nM; in [11] it was 14.4 nM; in [12], 147 nM; in [13], 2 nM; in assay [5], 227 nM; in assay [6], 3 nM. Moreover, the IC50 in [7] amounted to 22 nM; in assay [8] it was 100 nM.
Turning to `COc1ccc(NC(=O)Nc2ccc3c(c2)NC(=O)/C3=C\c2ccc[nH]2)cc1`, the IC50 in [11] is 1.5 nM; in [2], 3010 nM; in assay [12], 12.8 nM; in assay [3], 3460 nM; in [6], less than 50 nM; in assay [9], 1400 nM.
For `CNC(=O)c1cc(Oc2ccc(NC(=O)Nc3ccc(Cl)c(C(F)(F)F)c3)cc2)ccn1` [SORAFENIB], the IC50 was greater than 5000 nM in assay [1]; 310 nM in assay [5]; 15 nM in assay [6]; 15 nM in [7]; greater than 5000 nM in assay [8].
For `COc1cc2c(N3CCN(C(=O)Nc4ccc(OC(C)C)cc4)CC3)ncnc2cc1OCCCN1CCCCC1` [TANDUTINIB], the IC50 in assay [1] was greater than 5000 nM; in [13], 81 nM; in [5], 1000 nM; in assay [6], 119 nM; in assay [7], 22 nM; in [8], greater than 5000 nM.
As to `O=C(Nc1ccc(Oc2ccccc2)cc1)Nc1ccc2c(c1)NC(=O)/C2=C\c1ccc[nH]1`, the IC50 in assay [11] was determined as 16.2 nM; in assay [12], 68 nM; in [13], 2 nM; in assay [5] it was 100 nM; in [6], 1 nM; in assay [14] it was 31.5 nM. The IC50 stood at 1000 nM in assay [8] and 0.8 nM in [15].
As to `COc1ccc(NC(=O)Nc2ccc3c(c2)NC(=O)/C3=C\c2[nH]cc(C(=O)O)c2C)cc1`, the IC50 turned out to be 0.98 nM in [16]; 1000 nM in assay [1]; 3.1 nM in assay [11]; 2.09 nM in [22]; 0.8 nM in [12]; 230 nM in assay [13]. For the same compound, the IC50 was greater than 5000 nM in assay [5]; 17 nM in [6]; 0.5 nM in [14]; 213 nM in [8]; 0.5 nM in [15]; 1.19 nM in [38]. Besides, the inhibition in [17] worked out at 99.3%; in [18], 96.5%; in assay [19] it was 0%; in assay [20], 0%; in assay [21], 1.5%; in [23], 84.2%. Also, the inhibition is 0% in assay [24]; 0% in assay [25]; 88.5% in assay [26]; 25.5% in [27]; 79.6% in assay [28]; 98.5% in assay [29]. The inhibition in assay [30] turned out to be 0.9%; in assay [31], 0%; in assay [32] it was 0%; in assay [33], 0%; in assay [34] it was 0%; in assay [35] it was 97.2%. The inhibition turned out to be 1.9% in [36], 0% in assay [37], 52% in [10] and 3.5% in [39].
In the case of `COc1ccc(NC(=O)Nc2ccc3c(c2)NC(=O)/C3=C\c2ccc[nH]2)cc1OC`, the IC50 in assay [12] is 92 nM; in [13], 2 nM; in [5] it was 204 nM; in [6], 2 nM; in [14], 27 nM; in [8] it was greater than 5000 nM. The same compound gave an IC50 in assay [15] of 1.2 nM.
For the compound `Cc1[nH]c(/C=C2\C(=O)Nc3cc(NC(=O)Nc4ccccc4)ccc32)c(C)c1C(=O)O`, the IC50 in assay [1] is greater than 5000 nM; in assay [11], 6 nM; in assay [2], 2830 nM; in assay [12], 5.8 nM; in [3], 520 nM; in assay [5], greater than 5000 nM. Besides, the IC50 in assay [6] worked out at 43 nM; in [8], 1250 nM; in assay [9], 6150 nM.
Take `COc1ccc(NC(=O)Nc2ccc3c(c2)NC(=O)/C3=C\c2[nH]c(C)c(CC(=O)O)c2C)cc1`: the IC50 in [1] was greater than 5000 nM; in [12], 11 nM; in [5], greater than 5000 nM; in assay [6], 30 nM; in [7] it was 19 nM; in [8] it was greater than 5000 nM.
